Activity calls are given as the source filed them. The calls are words filed in the database; no cut-off is given here.
Experiments:
Rattus norvegicus [1] = assay: Conditioned avoidance response (CAR) was measured in rats at 10 mg/kg;I = inactive; type: functional, organism-based; set-up: dose 10 mg/kg
Rattus norvegicus [2] = assay: Conditioned avoidance response (CAR) was measured in rats at 40 mg/kg; A = active; type: functional, organism-based; set-up: dose 40 mg/kg
[3] = Lethal dose was measured in mice 0.5 hr post intraperitoneal administration; type: toxicity, organism-based; details: mouse, in vivo, ip
Mus musculus [4] = species: Mus musculus; assay: Relative CNS activity of compound was measured in mice (for activity in 2-3 assays); type: functional, organism-based; details: Central nervous system
Rattus norvegicus [5] = assay: Conditioned avoidance response (CAR) was measured in rats at 10 mg/kg; Inactive; type: functional, organism-based; set-up: dose 10 mg/kg
Rattus norvegicus [6] = assay: Conditioned avoidance response (CAR) was measured in rats at 40 mg/kg; Active; type: functional, organism-based; set-up: dose 40 mg/kg
Mus musculus [7] = species: Mus musculus; assay: Relative CNS activity of compound was measured in mice (++ =for activity in 4-5 assays); type: functional, organism-based; details: Central nervous system
Mus musculus [8] = species: Mus musculus; assay: Relative CNS activity of compound was measured in mice (+++ =for activity in > 6 assays); type: functional, organism-based; details: Central nervous system
Rattus norvegicus [9] = assay: Conditioned avoidance response (CAR) was measured in rats at 40 mg/kg;A = active; type: functional, organism-based; set-up: dose 40 mg/kg
Mus musculus [10] = species: Mus musculus; assay: Relative CNS activity of compound was measured in mice; (-) </= […]; type: functional, Central nervous system
Rattus norvegicus [11] = species: Rattus norvegicus; assay: Conditioned avoidance response (CAR) was measured in rats; Inactive; type: functional, organism-based
Rattus norvegicus [12] = species: Rattus norvegicus; assay: Conditioned avoidance response (CAR) was measured in rats; I = inactive; type: functional, organism-based
Rattus norvegicus [13] = assay: Conditioned avoidance response (CAR) was measured in rats at 20 mg/kg; A = active; type: functional, organism-based; set-up: dose 20 mg/kg
Rattus norvegicus [14] = assay: Conditioned avoidance response (CAR) was measured in rats at 10 mg/kg; I = inactive; type: functional, organism-based; set-up: dose 10 mg/kg
Rattus norvegicus [15] = assay: Conditioned avoidance response (CAR) was measured in rats at 5 mg/kg doses; I = inactive; type: functional, organism-based; set-up: dose 5 mg/kg
Rattus norvegicus [16] = assay: Conditioned avoidance response (CAR) was measured in rats at 20 mg/kg doses; I = inactive; type: functional, organism-based; set-up: dose 20 mg/kg

In the case of `CC1Cc2cccc(-c3ccccc3)c2CN1Cc1ccccc1.Cl` (configuration not stated), the CAR (Rattus norvegicus [1]) was “inactive”, the CAR (Rattus norvegicus [2]) was “Active” and the LD50 at 0.5 h [3] was 227 mg/kg. The Activity (Mus musculus [4]) was “Weak activity”.

For `COc1cccc(-c2cccc3c2CNCC3)c1.Cl`, the LD50 at 0.5 h [3] was less than 160 mg/kg, the CAR (Rattus norvegicus [5]) was “inactive” and the CAR (Rattus norvegicus [6]) was “Active”. For the same molecule, the Activity (Mus musculus [7]) was “Active”.

With `CN1CCc2cccc(-c3ccccc3)c2C1.O=C(O)/C=C/C(=O)O` the CAR (Rattus norvegicus [1]) was “inactive”, the LD50 at 0.5 h [3] was less than 320 mg/kg and the Activity (Mus musculus [8]) was “Weak activity”. The CAR (Rattus norvegicus [9]) was “Active”.

With `COc1ccccc1-c1cccc2c1CNCC2.Cl` the LD50 at 0.5 h [3] was 81 mg/kg and the Activity (Mus musculus [7]) was “Active”.

For `COc1cccc(-c2cccc3c2CN(Cc2ccccc2)CC3)c1.Cl`, the LD50 at 0.5 h [3] was greater than 320 mg/kg, the Activity (Mus musculus [10]) was “<=1” and the CAR (Rattus norvegicus [11]) was “inactive”.

For `COc1ccccc1-c1cccc2c1CN(Cc1ccccc1)CC2.Cl`, the LD50 at 0.5 h [3] was greater than 160 mg/kg, the Activity (Mus musculus [10]) was “<=1” and the CAR (Rattus norvegicus [11]) was “inactive”.

For `Cl.c1ccc(CN2CCc3cccc(-c4ccccc4)c3C2)cc1`, the LD50 at 0.5 h [3] was 158 mg/kg, the Activity (Mus musculus [10]) was “<=1” and the CAR (Rattus norvegicus [12]) was “inactive”.

With `COc1ccccc1-c1cccc2c1CN(C)CC2.Cl` the LD50 at 0.5 h [3] was 81 mg/kg, the CAR (Rattus norvegicus [5]) was “inactive” and the Activity (Mus musculus [10]) was “<=1”. For the same molecule, the CAR (Rattus norvegicus [6]) was “Active”.

With `COc1cccc(-c2cccc3c2CN(C)CC3)c1.Cl` the LD50 at 0.5 h [3] was 156 mg/kg, the Activity (Mus musculus [4]) was “Weak activity” and the CAR (Rattus norvegicus [5]) was “inactive”. For the same molecule, the CAR (Rattus norvegicus [6]) was “Active”.

For `Cl.c1ccc(-c2cccc3c2CNCC3)cc1`, the CAR (Rattus norvegicus [13]) was “Active”, the LD50 at 0.5 h [3] was 82 mg/kg and the Activity (Mus musculus [10]) was “<=1”. For the same molecule, the CAR (Rattus norvegicus [14]) was “inactive”.

In the case of `CC1Cc2cccc(-c3ccccc3)c2CN1.Cl` (configuration not stated), the LD50 at 0.5 h [3] was 146 mg/kg, the CAR (Rattus norvegicus [15]) was “inactive” and the Activity (Mus musculus [10]) was “<=1”. The CAR (Rattus norvegicus [16]) was “inactive”.

For `Br.CC1Cc2cccc(-c3ccccc3)c2CN1C` (configuration not stated), the LD50 at 0.5 h [3] was less than 320 mg/kg, the CAR (Rattus norvegicus [12]) was “inactive” and the Activity (Mus musculus [7]) was “Active”.

— ChEMBL document CHEMBL1121515 (J Med Chem, 1980)
